Test results reported in ChEMBL document CHEMBL5331060, “Bisindole natural products: A vital source for the development of new anticancer drugs” (Eur J Med Chem, 2022).
In brackets after ≈: the same amount, converted by molar mass.

Columns and labels:
Format in all cases: functional, cell-based
AGS = test: Antiproliferative activity against human AGS cells assessed as inhibition of cell growth incubated for 24 hrs by MTT assay
L1210 = test: Antiproliferative activity against mouse L1210 cells assessed as inhibition of cell growth incubated for 24 hrs by MTT assay; conditions: L1210, 24 h
A549 [1] = test: Antiproliferative activity against human A549 cells assessed as inhibition of cell growth incubated for 72 hrs by SRB assay; conditions: A549, 72 h
MCF7 [2] = test: Antiproliferative activity against human MCF7 cells assessed as inhibition of cell growth incubated for 72 hrs by SRB assay; conditions: MCF7, 72 h
HL-60 [3] = test: Antiproliferative activity against human HL-60 cells assessed as inhibition of cell growth incubated for 48 hrs by WST-1 assay; conditions: HL-60, 48 h
K562 [4] = test: Antiproliferative activity against human K562 cells assessed as inhibition of cell growth incubated for 48 hrs by WST-1 assay; conditions: K562, 48 h
MCF7 [5] = test: Antiproliferative activity against human MCF7 cells assessed as inhibition of cell growth incubated for 48 hrs by MTT assay; conditions: MCF7, 48 h
SW480 = test: Antiproliferative activity against human SW480 cells assessed as inhibition of cell growth incubated for 48 hrs by MTT assay; conditions: SW480, 48 h
A549 [6] = test: Antiproliferative activity against human A549 cells assessed as inhibition of cell growth incubated for 48 hrs by MTT assay; conditions: A549, 48 h
HL-60 [7] = test: Antiproliferative activity against human HL-60 cells assessed as inhibition of cell growth incubated for 48 hrs by MTT assay; conditions: HL-60, 48 h
SMMC-7721 [8] = test: Antiproliferative activity against human SMMC-7721 cells assessed as inhibition of cell growth incubated for 48 hrs by MTT assay; conditions: SMMC-7721, 48 h
SMMC-7721 [9] = test: Antiproliferative activity against human SMMC-7721 cells assessed as inhibition of cell growth incubated for 48 hrs by MTS assay; conditions: SMMC-7721, 48 h
K562 [10] = test: Antiproliferative activity against human K562 cells assessed as inhibition of cell growth by MTT assay
A549 [11] = test: Antiproliferative activity against human A549 cells assessed as inhibition of cell growth by MTT assay

Work on O=C1N[C@H](c2c[nH]c3cc(Br)ccc23)CN[C@H]1c1c[nH]c2cc(Br)ccc12 yielded an IC50 (AGS) of 1.1 µg/mL (≈ 2.25 µM) and an IC50 (L1210) of 1.1 µg/mL (≈ 2.25 µM).
Molecule CC[C@@H]1CN(C)[C@H]2Cc3c([nH]c4ccccc34)[C@H](c3ccc4c5c([nH]c4c3)[C@]3(C(=O)OC)C[C@@H]4C[C@H](CC)[C@@H]3N(CC5)[C@@H]4CCOC)C[C@H]1[C@@H]2C(=O)OC has an IC50 (A549 [1]) of 1.19 µM and an IC50 (MCF7 [2]) of 2.25 µM.
Work on CCC(=O)C[C@@H]1CN(C=O)CCc2c([nH]c3ccccc23)[C@@](C(=O)OC)(c2cc3c(cc2OC)N(C)[C@@H]2[C@]34CCN3CC=C[C@@](CC)(C[C@]2(O)C(=O)OC)[C@H]34)C1 yielded an IC50 (HL-60 [3]) of 56.2 µM and an IC50 (K562 [4]) of 56.2 µM.
For C/C=C1\CN(C)[C@H]2Cc3c([nH]c4ccccc34)[C@H](c3c(OC)ccc4c5c([nH]c34)[C@]3(C(=O)OC)C[C@@H]4C[C@H](CC)[C@@H]3N(CC5)C4)C[C@H]1[C@@H]2C(=O)OC, the IC50 (A549 [1]) was under 10 µM and the IC50 (MCF7 [2]) was under 10 µM.
Work on CC[C@]12C=CCN3CCc4c(n(c5ccccc45)[C@@H](c4cc5c(cc4OC)NC4=C(C(=O)OC)C[C@]6([C@@H](C)OC(C)=O)CCCN7CC[C@@]45[C@@H]76)C1)[C@@H]32 yielded an IC50 (MCF7 [5]) of 3.24 µM, an IC50 (SW480) of 3.24 µM and an IC50 (A549 [6]) of 3.24 µM. It also gave an IC50 (HL-60 [7]) of 3.24 µM and an IC50 (SMMC-7721 [8]) of 3.24 µM.
CC[C@]12C=CCN3CC[C@]4(C(=C(C(=O)OC)C1)Nc1cc5c(cc14)[C@@H]1[C@H](O5)[C@@H](O)[C@@]4(CC)C=C(C(=O)OC)C5Nc6c(ccc(OC)c6O)[C@@]56CCN1[C@@H]46)[C@@H]32 (stereo partly drawn) showed an IC50 (SMMC-7721 [9]) of 1.72 µM.
With C/C=C1/CN(C)[C@H]2Cc3c([nH]c4ccccc34)[C@H](c3ccc4[nH]c5c(c4c3)CCN3[C@H]4[C@@H](CC)C[C@H](C[C@@]54C(=O)OC)[C@@H]3CC(C)=O)C[C@H]1[C@@H]2C(=O)OC the IC50 (A549 [1]) was under 10 µM and the IC50 (MCF7 [2]) was under 10 µM.
In the case of CC[C@@H]1CN(C)[C@H]2Cc3c([nH]c4ccccc34)[C@H](c3ccc4c5c([nH]c4c3)[C@]3(C(=O)OC)C[C@@H]4C[C@H](CC)[C@@H]3N(CC5)C4)C[C@@H]1[C@@H]2C(=O)OC, the IC50 (A549 [1]) is reported as over 10 µM and the IC50 (MCF7 [2]) is reported as under 10 µM.
CC[C@]12C=CCN3CCc4c(n(c5cc(OC)ccc45)[C@@H](c4cc5c(cc4OC)NC4=C(C(=O)OC)C[C@]6(CC)CCCN7CC[C@@]45[C@@H]76)C1)[C@@H]32 showed an IC50 (MCF7 [5]) of 3.24 µM, an IC50 (SW480) of 3.24 µM and an IC50 (A549 [6]) of 3.24 µM. The IC50 (HL-60 [7]) was 3.24 µM and the IC50 (SMMC-7721 [8]) was 3.24 µM.
CC[C@@H]1CN(C)[C@H]2Cc3c([nH]c4ccccc34)[C@H](c3cc4[nH]c5c(c4cc3OC)CCN3C[C@H]4C[C@H](CC)[C@H]3[C@@]5(C(=O)OC)C4)C[C@H]1[C@@H]2C(=O)OC was tested, and the IC50 (A549 [1]) was under 10 µM and the IC50 (MCF7 [2]) was under 10 µM.
CC[C@]12C=CCN3CC[C@]4(C(=C(C(=O)OC)C1)Nc1cc(OC)c([C@@H]5[C@H]6O[C@H]6[C@@]6(CC)C=C(C(=O)OC)C7Nc8c(cc(O)c(OC)c8OC)[C@@]78CCN5[C@@H]68)cc14)[C@@H]32 (stereo partly drawn) showed an IC50 (SMMC-7721 [9]) of 2.01 µM.
Work on CO[C@@]1(C(=O)c2c[nH]c3cc(O)ccc23)N=C(c2c[nH]c3ccccc23)C(=O)N1 yielded an IC50 (K562 [10]) of 24.2 µM and an IC50 (A549 [11]) of 24.2 µM.
C/C=C1/CN2COC[C@]3(C(=O)OC)[C@@H]1C[C@@H](c1c(OC)ccc4c1NC1[C@@]4(O)CCN4C[C@H]5C[C@H](CC)[C@H]4[C@@]1(C(=O)OC)C5)c1[nH]c4ccccc4c1C[C@]23C (stereo partly drawn) showed an IC50 (MCF7 [5]) of 4.7 µM, an IC50 (SW480) of 10.3 µM and an IC50 (A549 [6]) of 10.3 µM. It also gave an IC50 (HL-60 [7]) of 10.3 µM and an IC50 (SMMC-7721 [8]) of 10.3 µM.
O=C1N[C@H](c2c[nH]c3ccccc23)CN=C1c1c[nH]c2cc(Br)ccc12 gave an IC50 (AGS) of 1.1 µg/mL (≈ 2.7 µM) and an IC50 (L1210) of 1.1 µg/mL (≈ 2.7 µM).
For C/C=C1\CN(C)[C@H]2Cc3c([nH]c4ccccc34)[C@H](c3cc4[nH]c5c(c4cc3OC)CCN3C[C@H]4C[C@H](CC)[C@H]3[C@H]5C4)C[C@H]1[C@@H]2C(=O)OC, the IC50 (A549 [1]) was under 10 µM and the IC50 (MCF7 [2]) was under 10 µM.
CC/C1=C/N(C=O)CCc2c([nH]c3ccccc23)[C@@](C(=O)OC)(c2cc3c(cc2OC)N(C)[C@H]2[C@@](O)(C(=O)OC)[C@H](OC(C)=O)[C@]4(CC)C=CCN5CC[C@]32[C@@H]54)CC(=O)C1 showed an IC50 (HL-60 [3]) of 56.2 µM and an IC50 (K562 [4]) of 56.2 µM.
CO[C@@]1(C(=O)c2c[nH]c3cc(O)ccc23)N=C(c2c[nH]c3cc(Br)ccc23)C(=O)N1 was tested, and the IC50 (K562 [10]) was 24.2 µM and the IC50 (A549 [11]) was 24.2 µM.
For C/C=C1\CN(C)[C@H]2Cc3c([nH]c4ccccc34)[C@H](c3c(OC)ccc4c5c([nH]c34)[C@]3(C(=O)OC)C[C@@H]4C[C@H](CC)[C@@H]3N(CC5)[C@@H]4CC(C)=O)C[C@H]1[C@@H]2C(=O)OC, the IC50 (A549 [1]) was under 10 µM and the IC50 (MCF7 [2]) was under 10 µM.
